# Assay results reported in PMC12514245, “Impaired migration and lung invasion of human melanoma by a novel small molecule targeting the transmembrane domain of death receptor p75^NTR” (EMBO Molecular Medicine, 2025).
# Several values for one entry are separate records, joined by “and”; a condition that tells them apart may be missing. Equal values may be shown once.
# How the values were obtained:
# p75^NTR TMD I252A = molecular target: T1, p75^NTR TMD I252A (Homo sapiens, UniProt P08138, I252A); experiment: AraTM assay, I252A mutant p75NTR TMD; format: cell-based; conditions: for GFP/OD630, p75NTR I252A, Mean: N=3
# T1 construct: Comparison of wild-type (WT) p75^NTR TMD and I252A, P253G and V254A mutants in the AraTM assay; expressed in transfected cells; host or cells: E. coli AS19 (LPS-negative)
# T1 sequence (P08138 250-275 I252A): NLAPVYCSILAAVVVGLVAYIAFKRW
# p75^NTR TMD V254A = molecular target: T2, p75^NTR TMD V254A (Homo sapiens, UniProt P08138, V254A); experiment: AraTM assay, V254A mutant p75NTR TMD; format: cell-based; conditions: for GFP/OD630, p75NTR V254A, Mean: N=3
# T2 construct: Comparison of wild-type (WT) p75^NTR TMD and I252A, P253G and V254A mutants in the AraTM assay; expressed in transfected cells; host or cells: E. coli AS19 (LPS-negative)
# T2 sequence (P08138 250-275 V254A): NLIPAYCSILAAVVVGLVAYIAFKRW
# p75^NTR TMD P253G = molecular target: T3, p75^NTR TMD P253G (Homo sapiens, UniProt P08138, P253G); experiment: AraTM assay, P253G mutant p75NTR TMD; format: cell-based; conditions: for GFP/OD630, p75NTR P253G, Mean: N=3
# T3 construct: Comparison of wild-type (WT) p75^NTR TMD and I252A, P253G and V254A mutants in the AraTM assay; expressed in transfected cells; host or cells: E. coli AS19 (LPS-negative)
# p75^NTR TMD = molecular target: T4, p75^NTR TMD (Homo sapiens, UniProt P08138); experiment: AraTM assay, wild-type p75NTR TMD (GFP/OD630); format: cell-based; conditions: for GFP/OD630, p75, mean / GFP/OD630, p75NTR WT, Mean: N=3; for GFP/OD630, p75NTR WT, n1-n3: WT without drug = 100%; for GFP/OD630, Mean / GFP/OD630, individual replicates: Figure 5B
# T4 sequence (P08138 250-275 limits assumed): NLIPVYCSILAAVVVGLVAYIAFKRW
# A875 melanoma cells (NT) = experiment: Cleaved PARP western blot (apoptosis), A875 NT; format: cell-based, human
# Description: One of the main biological readouts of p75^NTR activity in response to neurotrophins is the induction of caspase-mediated apoptotic cell death (Underwood and Coulson, [2008]; Friedman, [2010]; Ibáñez and Simi, [2012]).
# COS7, A875 and WM115 cell lines were cultured under standard conditions in DMEM supplemented with 10% fetal calf serum, 100 units/ml penicillin, […] streptomycin, and 2.5 mM glutamine. All cells were authenticated and tested for mycoplasma contamination. A875-NT (control) and A875 shp75 (knockdown) cell lines were described previously (Goh et al, [2018]).
# α2β3 integrin TMD = experiment: AraTM assay, α2β3 integrin TMD; format: cell-based; conditions: for GFP/OD630, A2b, mean: N=3
# T3 sequence (P08138 251-272 P253G limits assumed): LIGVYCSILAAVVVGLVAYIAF
compound,measurement,setting,value
Oc1ccc(-c2cncc(Nc3ccc(Br)c(Cl)c3)n2)cc1 [Div17E5],effect of Ile252 mutation on compound activity in AraTM assay,p75^NTR TMD I252A,abolished
same,"GFP/OD630, p75NTR I252A, n1-n3",p75^NTR TMD I252A; Div17E5 7.5 uM,99% and 104% and 92%
same,"GFP/OD630, p75NTR I252A, Mean",p75^NTR TMD I252A; Div17E5 7.5 uM,98%
same,"GFP/OD630, p75NTR I252A, n1-n3",p75^NTR TMD I252A; Div17E5 15 uM,98% and 107% and 87%
same,"GFP/OD630, p75NTR I252A, Mean",p75^NTR TMD I252A; Div17E5 15 uM,97%
same,"GFP/OD630, p75NTR I252A, n1-n3",p75^NTR TMD I252A; Div17E5 20 uM,96% and 91% and 100%
same,"GFP/OD630, p75NTR I252A, Mean",p75^NTR TMD I252A; Div17E5 20 uM,96%
same,"GFP/OD630, p75NTR I252A, n1-n3",p75^NTR TMD I252A; Div17E5 50 uM,99% and 106% and 92%
same,"GFP/OD630, p75NTR I252A, Mean",p75^NTR TMD I252A; Div17E5 50 uM,99%
same,effect of Val254 mutation on compound activity in AraTM assay,p75^NTR TMD V254A,abolished
same,"GFP/OD630, p75NTR V254A, n1-n3",p75^NTR TMD V254A; Div17E5 7.5 uM,87% and 97% and 91%
same,"GFP/OD630, p75NTR V254A, Mean",p75^NTR TMD V254A; Div17E5 7.5 uM,92%
same,"GFP/OD630, p75NTR V254A, n1-n3",p75^NTR TMD V254A; Div17E5 15 uM,86% and 95% and 96%
same,"GFP/OD630, p75NTR V254A, Mean",p75^NTR TMD V254A; Div17E5 15 uM,92%
same,"GFP/OD630, p75NTR V254A, n1-n3",p75^NTR TMD V254A; Div17E5 20 uM,89% and 96% and 99%
same,"GFP/OD630, p75NTR V254A, Mean",p75^NTR TMD V254A; Div17E5 20 uM,95%
same,"GFP/OD630, p75NTR V254A, n1-n3",p75^NTR TMD V254A; Div17E5 50 uM,95% and 85% and 98%
same,"GFP/OD630, p75NTR V254A, Mean",p75^NTR TMD V254A; Div17E5 50 uM,93%
same,effect of Pro253 mutation on compound activity in AraTM assay,p75^NTR TMD P253G,had no effect
same,"GFP/OD630, p75NTR P253G, n1-n3",p75^NTR TMD P253G; Div17E5 7.5 uM,62% and 68% and 61%
same,"GFP/OD630, p75NTR P253G, Mean",p75^NTR TMD P253G; Div17E5 7.5 uM,64%
same,"GFP/OD630, p75NTR P253G, n1-n3",p75^NTR TMD P253G; Div17E5 15 uM,61% and 77% and 66%
same,"GFP/OD630, p75NTR P253G, Mean",p75^NTR TMD P253G; Div17E5 15 uM,68%
same,"GFP/OD630, p75NTR P253G, n1-n3",p75^NTR TMD P253G; Div17E5 20 uM,59% and 49% and 56%
same,"GFP/OD630, p75NTR P253G, Mean",p75^NTR TMD P253G; Div17E5 20 uM,55%
same,"GFP/OD630, p75NTR P253G, n1-n3",p75^NTR TMD P253G; Div17E5 50 uM,57% and 56% and 59%
same,"GFP/OD630, p75NTR P253G, Mean",p75^NTR TMD P253G; Div17E5 50 uM,57%
same,"GFP/OD630, p75, single replicates",p75^NTR TMD; Div17E5 1 μM,95 and 91 and 115
same,"GFP/OD630, p75, mean",p75^NTR TMD; Div17E5 1 μM,100
same,"GFP/OD630, p75, single replicates",p75^NTR TMD; Div17E5 2.5 μM,82 and 86 and 101
same,"GFP/OD630, p75, mean",p75^NTR TMD; Div17E5 2.5 μM,90
same,"GFP/OD630, p75, single replicates",p75^NTR TMD; Div17E5 5 μM,66 and 81 and 88
same,"GFP/OD630, p75, mean",p75^NTR TMD; Div17E5 5 μM,78
same,"GFP/OD630, p75NTR WT, Mean",p75^NTR TMD; Div17E5 7.5 uM,69%
same,"GFP/OD630, p75NTR WT, n1-n3",p75^NTR TMD; Div17E5 7.5 uM,70% and 62% and 76%
same,"GFP/OD630, p75, single replicates",p75^NTR TMD; Div17E5 10 μM,49 and 55 and 68
same,"GFP/OD630, p75, mean",p75^NTR TMD; Div17E5 10 μM,57
same,"GFP/OD630, p75NTR WT, Mean",p75^NTR TMD; Div17E5 15 uM,61%
same,"GFP/OD630, p75NTR WT, n1-n3",p75^NTR TMD; Div17E5 15 uM,62% and 58% and 63%
same,"GFP/OD630, p75, single replicates",p75^NTR TMD; Div17E5 20 μM,39 and 55 and 49
same,"GFP/OD630, p75NTR WT, Mean",p75^NTR TMD; Div17E5 20 uM,45%
same,"GFP/OD630, p75, mean",p75^NTR TMD; Div17E5 20 μM,48
same,"GFP/OD630, p75NTR WT, n1-n3",p75^NTR TMD; Div17E5 20 uM,50% and 41% and 44%
same,"GFP/OD630, p75, single replicates",p75^NTR TMD; Div17E5 50 μM,33 and 42 and 39
same,"GFP/OD630, p75NTR WT, Mean",p75^NTR TMD; Div17E5 50 uM,45%
same,"GFP/OD630, p75, mean",p75^NTR TMD; Div17E5 50 μM,38
same,"GFP/OD630, p75NTR WT, n1-n3",p75^NTR TMD; Div17E5 50 uM,43% and 46% and 47%
same,"GFP/OD630, Mean",p75^NTR TMD; compound 2 μM,0.93
same,"GFP/OD630, individual replicates",p75^NTR TMD; compound 2 μM,0.98 and 0.93 and 0.88
same,"GFP/OD630, Mean",p75^NTR TMD; compound 4 μM,0.86
same,"GFP/OD630, individual replicates",p75^NTR TMD; compound 4 μM,0.83 and 0.92 and 0.82
same,"GFP/OD630, Mean",p75^NTR TMD; compound 6 μM,0.82
same,"GFP/OD630, individual replicates",p75^NTR TMD; compound 6 μM,0.86 and 0.78 and 0.83
same,"GFP/OD630, Mean",p75^NTR TMD; compound 8 μM,0.44
same,"GFP/OD630, individual replicates",p75^NTR TMD; compound 8 μM,0.43 and 0.51 and 0.37
same,"GFP/OD630, Mean",p75^NTR TMD; compound 10 μM,0.43
same,"GFP/OD630, individual replicates",p75^NTR TMD; compound 10 μM,0.41 and 0.48 and 0.40
same,IC50,p75^NTR TMD; dose-response,12 µM
same,selectivity for the p75NTR TMD as compared to TMDs of two unrelated proteins,p75^NTR TMD; vs α2β3 integrin and M2 TMDs,good selectivity
same,apoptosis (cleavage of PARP),A875 melanoma cells (NT),induced apoptosis
same,"Cleaved PARP normalized to DMSO, individual replicates",A875 melanoma cells (NT); 0.5uM,2.699 and 3.180 and 5.109
same,"Cleaved PARP/actin, individual replicates",A875 melanoma cells (NT); 0.5uM,0.023 and 0.026 and 0.037
same,"Cleaved PARP normalized to DMSO, Average",A875 melanoma cells (NT); 0.5μM,3.662
same,"Cleaved PARP normalized to DMSO, individual replicates",A875 melanoma cells (NT); 1uM,10.573 and 9.243 and 5.315
same,"Cleaved PARP/actin, individual replicates",A875 melanoma cells (NT); 1uM,0.078 and 0.043 and 0.077
same,"Cleaved PARP normalized to DMSO, Average",A875 melanoma cells (NT); 1μM,8.377
same,"Cleaved PARP normalized to DMSO, individual replicates",A875 melanoma cells (NT); 2uM,25.774 and 23.617 and 17.703
same,"Cleaved PARP/actin, individual replicates",A875 melanoma cells (NT); 2uM,0.187 and 0.200 and 0.142
same,"Cleaved PARP normalized to DMSO, Average",A875 melanoma cells (NT); 2μM,22.365
same,"Cleaved PARP normalized to DMSO, individual replicates",A875 melanoma cells (NT); 5uM,31.874 and 36.234 and 27.415
same,"Cleaved PARP/actin, individual replicates",A875 melanoma cells (NT); 5uM,0.231 and 0.306 and 0.220
same,"Cleaved PARP normalized to DMSO, Average",A875 melanoma cells (NT); 5μM,31.841
same,"GFP/OD630, A2b, single replicates",α2β3 integrin TMD; Div17E5 1 μM,111 and 92 and 98
same,"GFP/OD630, A2b, mean",α2β3 integrin TMD; Div17E5 1 μM,100
same,"GFP/OD630, A2b, single replicates",α2β3 integrin TMD; Div17E5 2.5 μM,89 and 116 and 95
same,"GFP/OD630, A2b, mean",α2β3 integrin TMD; Div17E5 2.5 μM,100
same,"GFP/OD630, A2b, single replicates",α2β3 integrin TMD; Div17E5 5 μM,95 and 87 and 112
same,"GFP/OD630, A2b, mean",α2β3 integrin TMD; Div17E5 5 μM,98
same,"GFP/OD630, A2b, single replicates",α2β3 integrin TMD; Div17E5 10 μM,81 and 96 and 87
same,"GFP/OD630, A2b, mean",α2β3 integrin TMD; Div17E5 10 μM,88
same,"GFP/OD630, A2b, single replicates",α2β3 integrin TMD; Div17E5 20 μM,90 and 98 and 82
same,"GFP/OD630, A2b, mean",α2β3 integrin TMD; Div17E5 20 μM,90
same,"GFP/OD630, A2b, single replicates",α2β3 integrin TMD; Div17E5 50 μM,79 and 86 and 94
same,"GFP/OD630, A2b, mean",α2β3 integrin TMD; Div17E5 50 μM,86
